Patent publication US5980913A, “Peptides having immunomodulatory activity” (Biochem Pharma, Inc., priority 1994, dated 1999)
Where a SMILES comes first, the peptide text is derived from it.

How the values were obtained:
[1] = system: P815 target cells; test: Cytotoxic T lymphocytes (CTL) assay, 51Cr release, after 5 days mixed culture with drug; format: cell-based, C57BL/6 mice
From the text: 1. Cytotoxic T Lymphocytes (CTL) Mixed Lymphocyte Reaction (MLR) and Mitogenic Response Assays
The protocols used are described in Hudson L., Haay F., Pratical immunology, 3rd edition, Blackwell, Scientific publications, Oxford 1989, p. 158-162, and p.447.
Lymphocytes were isolated from C57BL/6 mice and DBA/2 mice in accordance to techniques well known in the art. Cell concentration was adjusted to 10×10^6 cell/ml for each assay. The cells isolated from DBA/2 mice were irradiated with 3000 Rads.
In a 6 well plate, each well was set up with:
The cells were incubated for five days at 37° C. in 5% CO2, after which CTL and MLR assays were performed.
a) Cytotoxic T Lymphocytes (CTL)
P815 target cells were labelled with Cr^51 (0.1 mCi). After labelling, the cells were washed three times and resuspended to a concentration of 5×10^4 cells/ml in media. p T cells were then counted and diluted to obtain a concentration of 2.5×10^6 cells/ml, and then further diluted to obtain the following effector:target ratios:
100 μl of target cells+100 μl of CTLs were incubated for 4 hours. In parallel wells, 100 μl of target cells+100 μl of media were incubated for spntaneous release. After incubation, cells were centrifuged and 100 μl of supernatant was then counted using a gamma counter.
Results are expressed as % specific ^51 Cr release= [formula] where ER=experimental release, SR=spontaneous releaase, and
0 represents less than 20%, + represents 20-40%, ++ represents 40-60%, +++ represent 60-80%, and ++++ represents 80% and over.

[2] = system: blood cell subsets (cell surface antigens); test: In vivo/ex vivo immunophenotyping in the blood, mice treated 4 consecutive days, blood taken on day 5; design: species or system C57BL/6 mice
Protocol: C57BL.backslash.6 mice are treated with 0, 50, 100, 200, and 300 mg/kg of drug (in saline) for 4 consecutive days. Blood is taken by cardiac puncture on day 5, and the lymphocytes are isolated from spleen in the following manner:
1. Immunophenotyping (blood and spleen)
Cell immunophenotyping is performed on blood and spleen. The following cell surface antigens are analyzed:
CD4 (T helper/inducer, binds class II-restricted T cells);
CD8 (cytotoxic T cells, CTL adhesion);
MAC-1 (monocyte/macrophage);
NK (natural killer cells);
CD45 (all leukocytes, protein tyrosine phosphatase).

[3] = Toxicity in vivo; conditions: animals treated with 50, 100, 200, and 300 mg/kg
From the text: peptide #1 (SEQ. ID NO:1) appears to be non-toxic.

SMILES: NCCCC[C@H](N)C(=O)N[C@@H](CC(N)=O)C(=O)N1CCC[C@H]1C(=O)N[C@@H](Cc1ccc(O)cc1)C(=O)O [PEPTIDE #1, H-Lys-Asn-Pro-Tyr-OH] (H-KNPY-OH)
- CTL, % augmentation compared to IL-2 (IL-2 is 100%) ([1]; 10^-7 M): ++ (++ represents 40-60%)
- stimulation of CTL in vitro (in words) ([1]; summary of Table 1): stimulates CTL's
- B cell subset, relative percentage ([2]; 50 mg/kg): 23.57
- CD4+ CD8+ cell subset, relative percentage ([2]; 50 mg/kg): 3.65
- CD4+ CD8- cell subset, relative percentage ([2]; 50 mg/kg): 27.15
- CD4+ CD11+ cell subset, relative percentage ([2]; 50 mg/kg): 0.53
- CD4+ CD11- cell subset, relative percentage ([2]; 50 mg/kg): 34.10
- CD4+ CD45+ cell subset, relative percentage ([2]; 50 mg/kg): 26.95
- CD4+ CD45- cell subset, relative percentage ([2]; 50 mg/kg): 3.80
- CD4- CD8+ cell subset, relative percentage ([2]; 50 mg/kg): 11.20
- CD4- CD8- cell subset, relative percentage ([2]; 50 mg/kg): 58.05
- CD4- CD11+ cell subset, relative percentage ([2]; 50 mg/kg): 7.67
- CD4- CD11- cell subset, relative percentage ([2]; 50 mg/kg): 57/73
- CD4- CD45+ cell subset, relative percentage ([2]; 50 mg/kg): 65.30
- CD4- CD45- cell subset, relative percentage ([2]; 50 mg/kg): 3.90
- CD8+ CD45+ cell subset, relative percentage ([2]; 50 mg/kg): 13.70
- CD8+ CD45- cell subset, relative percentage ([2]; 50 mg/kg): 0.55
- CD8- CD45+ cell subset, relative percentage ([2]; 50 mg/kg): 76.15
- CD8- CD45- cell subset, relative percentage ([2]; 50 mg/kg): 9.60
- NK+ CD3+ cell subset, relative percentage ([2]; 50 mg/kg): 7.83
- NK+ CD3- cell subset, relative percentage ([2]; 50 mg/kg): 10.47
- NK- CD3+ cell subset, relative percentage ([2]; 50 mg/kg): 41.23
- NK- CD3- cell subset, relative percentage ([2]; 50 mg/kg): 40.53
- Non B cell subset, relative percentage ([2]; 50 mg/kg): 76.40
- B cell subset, relative percentage ([2]; 100 mg/kg): 19.23
- CD4+ CD8+ cell subset, relative percentage ([2]; 100 mg/kg): 27.20
- CD4+ CD8- cell subset, relative percentage ([2]; 100 mg/kg): 28.55
- CD4+ CD11+ cell subset, relative percentage ([2]; 100 mg/kg): 0.23
- CD4+ CD11- cell subset, relative percentage ([2]; 100 mg/kg): 41.67
- CD4+ CD45+ cell subset, relative percentage ([2]; 100 mg/kg): 46.75
- CD4+ CD45- cell subset, relative percentage ([2]; 100 mg/kg): 8.90
- CD4- CD8+ cell subset, relative percentage ([2]; 100 mg/kg): 11.50
- CD4- CD8- cell subset, relative percentage ([2]; 100 mg/kg): 32.85
- CD4- CD11+ cell subset, relative percentage ([2]; 100 mg/kg): 3.00
- CD4- CD11- cell subset, relative percentage ([2]; 100 mg/kg): 55.13
- CD4- CD45+ cell subset, relative percentage ([2]; 100 mg/kg): 37.30
- CD4- CD45- cell subset, relative percentage ([2]; 100 mg/kg): 7.00
- CD8+ CD45+ cell subset, relative percentage ([2]; 100 mg/kg): 31.95
- CD8+ CD45- cell subset, relative percentage ([2]; 100 mg/kg): 6.20
- CD8- CD45+ cell subset, relative percentage ([2]; 100 mg/kg): 47.55
- CD8- CD45- cell subset, relative percentage ([2]; 100 mg/kg): 14.35
- NK+ CD3+ cell subset, relative percentage ([2]; 100 mg/kg): 2.80
- NK+ CD3- cell subset, relative percentage ([2]; 100 mg/kg): 6.50
- NK- CD3+ cell subset, relative percentage ([2]; 100 mg/kg): 37.57
- NK- CD3- cell subset, relative percentage ([2]; 100 mg/kg): 53.13
- Non B cell subset, relative percentage ([2]; 100 mg/kg): 80.77
- B cell subset, relative percentage ([2]; 200 mg/kg): 20.10
- CD4+ CD8+ cell subset, relative percentage ([2]; 200 mg/kg): 16.11
- CD4+ CD8- cell subset, relative percentage ([2]; 200 mg/kg): 24.11
- CD4+ CD11+ cell subset, relative percentage ([2]; 200 mg/kg): 0.50
- CD4+ CD11- cell subset, relative percentage ([2]; 200 mg/kg): 39.73
- CD4+ CD45+ cell subset, relative percentage ([2]; 200 mg/kg): 33.01
- CD4+ CD45- cell subset, relative percentage ([2]; 200 mg/kg): 6.22
- CD4- CD8+ cell subset, relative percentage ([2]; 200 mg/kg): 8.57
- CD4- CD8- cell subset, relative percentage ([2]; 200 mg/kg): 37.41
- CD4- CD11+ cell subset, relative percentage ([2]; 200 mg/kg): 5.50
- CD4- CD11- cell subset, relative percentage ([2]; 200 mg/kg): 54.30
- CD4- CD45+ cell subset, relative percentage ([2]; 200 mg/kg): 40.63
- CD4- CD45- cell subset, relative percentage ([2]; 200 mg/kg): 6.74
- CD8+ CD45+ cell subset, relative percentage ([2]; 200 mg/kg): 20.68
- CD8+ CD45- cell subset, relative percentage ([2]; 200 mg/kg): 4.13
- CD8- CD45+ cell subset, relative percentage ([2]; 200 mg/kg): 49.80
- CD8- CD45- cell subset, relative percentage ([2]; 200 mg/kg): 10.39
- NK+ CD3+ cell subset, relative percentage ([2]; 200 mg/kg): 4.57
- NK+ CD3- cell subset, relative percentage ([2]; 200 mg/kg): 8.70
- NK- CD3+ cell subset, relative percentage ([2]; 200 mg/kg): 31.73
- NK- CD3- cell subset, relative percentage ([2]; 200 mg/kg): 55.07
- Non B cell subset, relative percentage ([2]; 200 mg/kg): 79.90
- B cell subset, relative percentage ([2]; 300 mg/kg): 33.67
- CD4+ CD8+ cell subset, relative percentage ([2]; 300 mg/kg): 2.37
- CD4+ CD8- cell subset, relative percentage ([2]; 300 mg/kg): 31.07
- CD4+ CD11+ cell subset, relative percentage ([2]; 300 mg/kg): 0.37
- CD4+ CD11- cell subset, relative percentage ([2]; 300 mg/kg): 29.53
- CD4+ CD45+ cell subset, relative percentage ([2]; 300 mg/kg): 30.67
- CD4+ CD45- cell subset, relative percentage ([2]; 300 mg/kg): 2.77
- CD4- CD8+ cell subset, relative percentage ([2]; 300 mg/kg): 16.67
- CD4- CD8- cell subset, relative percentage ([2]; 300 mg/kg): 49.90
- CD4- CD11+ cell subset, relative percentage ([2]; 300 mg/kg): 5.07
- CD4- CD11- cell subset, relative percentage ([2]; 300 mg/kg): 65.03
- CD4- CD45+ cell subset, relative percentage ([2]; 300 mg/kg): 62.10
- CD4- CD45- cell subset, relative percentage ([2]; 300 mg/kg): 4.47
- CD8+ CD45+ cell subset, relative percentage ([2]; 300 mg/kg): 18.10
- CD8- CD45+ cell subset, relative percentage ([2]; 300 mg/kg): 73.03
- CD8- CD45- cell subset, relative percentage ([2]; 300 mg/kg): 8.83
- NK+ CD3+ cell subset, relative percentage ([2]; 300 mg/kg): 9.97
- NK+ CD3- cell subset, relative percentage ([2]; 300 mg/kg): 11.87
- NK- CD3+ cell subset, relative percentage ([2]; 300 mg/kg): 42.43
- NK- CD3- cell subset, relative percentage ([2]; 300 mg/kg): 35.77
- Non B cell subset, relative percentage ([2]; 300 mg/kg): 66.30
- change of the relative percentage of B cell (in words) ([2]; 300 mg/kg): significant increase
- toxicity in vivo (in words) [3]: No apparent toxicity
